From patent publication US8288382B2, “Diaminothiazoles useful as Axl inhibitors” (Rigel Pharmaceuticals, Inc., priority 2006, dated 2012)

Molecular target: T1, Axl (Homo sapiens, UniProt P30530)
T1 construct: endogenous in cells; host or cells: HeLa cells
T1 sequence (P30530 26-894): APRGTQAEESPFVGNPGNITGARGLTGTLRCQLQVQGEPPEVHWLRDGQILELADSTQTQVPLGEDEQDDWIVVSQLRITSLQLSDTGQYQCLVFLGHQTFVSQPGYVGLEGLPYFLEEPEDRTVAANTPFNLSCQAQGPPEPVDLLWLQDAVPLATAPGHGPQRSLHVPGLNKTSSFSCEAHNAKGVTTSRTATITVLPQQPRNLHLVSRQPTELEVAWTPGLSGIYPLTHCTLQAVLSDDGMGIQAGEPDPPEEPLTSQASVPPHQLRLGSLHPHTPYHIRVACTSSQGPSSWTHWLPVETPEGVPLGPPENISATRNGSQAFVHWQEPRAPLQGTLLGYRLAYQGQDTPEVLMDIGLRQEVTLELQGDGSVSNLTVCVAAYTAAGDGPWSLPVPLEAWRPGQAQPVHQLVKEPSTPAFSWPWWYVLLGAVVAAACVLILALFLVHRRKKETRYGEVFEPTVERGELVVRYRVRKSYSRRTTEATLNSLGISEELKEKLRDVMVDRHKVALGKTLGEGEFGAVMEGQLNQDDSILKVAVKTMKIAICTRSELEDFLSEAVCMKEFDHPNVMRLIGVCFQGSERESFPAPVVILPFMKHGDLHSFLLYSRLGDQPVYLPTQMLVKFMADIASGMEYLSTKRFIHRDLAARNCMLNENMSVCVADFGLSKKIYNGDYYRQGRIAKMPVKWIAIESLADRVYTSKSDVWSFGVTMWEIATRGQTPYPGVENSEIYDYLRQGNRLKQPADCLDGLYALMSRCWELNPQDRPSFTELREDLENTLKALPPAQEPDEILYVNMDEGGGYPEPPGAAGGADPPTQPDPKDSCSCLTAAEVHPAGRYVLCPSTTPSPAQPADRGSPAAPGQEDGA
Experiment: Phospho-Akt In-Cell Western Assay (inhibition of Axl activity)
Format: cell-based
Conditions: Hela cells, stimulated by Axl-antibody cross-linking, phospho-Akt chemiluminescence normalized to relative cell number
Description: The compounds of the invention were tested in the following assay for their ability to inhibit Axl activity.
Phospho-Akt In-Cell Western Assay
• Cell culture plate: 96 well assay plate (Corning 3610), white, clear bottom, tissue-culture treated. • Cells: Hela cells. • Starvation medium: For Axl stimulation: 0.5% FCS (fetal calf serum) in DMEM, plus Axl/Fc (extracellular domain of AXL fused to imunoglobulin Fc region) (R&D, 154-AL) 500 ng/mL. • For EGF (epidermal growth factor) stimulation: 0.5% FCS in DMEM (Dulbecco's modified Eagles medium). • Poly-L-Lysine 0.01% solution (the working solution): 10 μg/ml, dilute In PBS (phosphate buffered saline). • Axl antibody cross-linking: • 1st: Mouse anti-Axl (R&D, MAB154). • 2nd: Biotin-SP-conjugated AffiniPure goat anti-mouse IgG (H+L) (Jackson ImmunoResearch #115-065-003). • Fixing buffer: 4% formaldehyde in PBS. • Wash buffer: 0.1% TritonX-100 in PBS. • Quenching buffer: 3% H2O2, 0.1% Azide in wash buffer, Azide and hydrogen peroxide (H2O2) are added fresh. • Blocking buffer: 5% BSA in TBST (tris buffered saline plus 0.1% Tween 20). • Primary antibody: Rabbit anti-human Phospho-Akt antibody (Cell Signaling 9271): 1×250 diluted in blocking buffer. • Secondary antibody: HRP (horse radish peroxidase)-conjugated Goat anti-Rabbit secondary, stock solution: Jackson ImmunoResearch (Goat anti-Rabbit HRP, #111-035-144) 1:1 diluted in glycerol, store at −20° C. The working solution: 1×2000 dilution of stock in blocking buffer. • Chemiluminescent working solution (Pierce, 37030): SuperSignal ELISA (enzyme linked immunosorbant assay) Pico Chemiluminescent substrate. • Crystal Violet solution: Stock: 2.5% Crystal violet in methanol, filtered and kept at ambient temperature. The working solution: dilute the stock 1:20 with PBS immediately before use. • 10% SDS: working solution: 5% SDS (sodium dodecylsulfate), diluted in PBS Methods: Day 1:
A 96 well TC (tissue culture treated) plate was coated with 10 μg/mL poly-L-Lysine at 37° C. for 30 min, washed twice with PBS, and air-dried for 5 minutes before cells were added. Hela cells were seeded at 10,000 cells/well and the cells were starved in 100 μL starvation medium containing Axl/Fc for 24 hrs.
The cells were pre-treated with test compounds by adding 100 μL of 2× test compound to the starvation medium on the cells. The cells were incubated at 37° C. for 1 hr before stimulation.
The cells were stimulated by Axl-antibody cross-linking as follows: A 5× 1st/2nd Axl antibody mixture was made (37.5 μg/mL 1st/100 μg/mL 2nd) in starvation medium and nutated at 4° C. with thorough mixing for 1-2 hours for clustering. The resulting mix was warmed to 37° C. 50 μL of 5× Axl 1st/2nd of antibody cluster was added to the cells and the cells were incubated at 37° C. for 5 min.
After 5 minutes stimulation, the plate was flicked to remove medium and the plate was tapped onto paper towels. Formaldehyde (4.0% in PBS, 100 μL) was added to fix the cells and the cells were incubated at ambient temperature for 20 min without shaking.
The cells were washed with a plate washer buffer to remove the formaldehyde solution. The plate was flicked to removed excess wash buffer and tapped onto paper towels. Quenching buffer (100 μL) was added to each well and the cells were incubated at ambient temperature for 20 minutes without shaking.
The cells were washed with a plate washer buffer to remove the quenching buffer. Blocking buffer (100 μL) was added and the cells were incubated at ambient temperature for at least an hour with gentle shaking.
The cells were washed with a plate washer buffer and diluted primary antibody (50 μL) was added to each well (blocking buffer was added to the negative control wells instead). The plates were incubated overnight at 4° C. with gentle shaking.
The wash buffer was removed, diluted secondary antibody (100 μL) was added, and the cells were incubated at ambient temperature for 1 hour with gentle shaking. […]

SMILES	IC50
Nc1nc(Nc2ccc(OCCN3CCCC3)cc2)sc1-c1nccc2ccccc12 [Compound 8, 5-(isoquinolin-1-yl)-N^2-(4-(2-(pyrrolidin-1-yl)ethoxy)phenyl)thiazole-2,4-diamine]	> 20 µM
Nc1nc(Nc2ccc(OCCN3CCCC3)cc2)sc1-c1ncnc2ccccc12 [Compound 5, N^2-(4-(2-(pyrrolidin-1-yl)ethoxy)phenyl)-5-(quinazolin-4-yl)thiazole-2,4-diamine]	1 to 10 µM
COc1ccc(Nc2nc(N)c(-c3ccccn3)s2)cc1 [Compound 2, N^2-(4-methoxyphenyl)-5-(pyridin-2-yl)thiazole-2,4-diamine]	> 20 µM
Nc1nc(Nc2ccc(OCCN3CCCC3)cc2)sc1-c1nc2ccccc2s1 [Compound 9, 5-(benzo[d]thiazol-2-yl)-N^2-(4-(2-(pyrrolidin-1-yl)ethoxy)phenyl)thiazole-2,4-diamine]	1 to 10 µM
COc1cc2ncnc(-c3sc(Nc4ccc(N5CCN(C6CC7CCC6C7)CC5)cc4)nc3N)c2cc1OC (centres unmarked) [Compound 13, N^2-(4-(4-(bicyclo[2.2.1]heptan-2-yl)piperazin-1-yl)phenyl)-5-(6,7-dimethoxyquinazolin-4-yl)thiazole-2,4-diamine]	> 20 µM
COc1cc(Nc2nc(N)c(-c3cnc4ccccc4n3)s2)cc(OC)c1OC [Compound 3, 5-(quinoxalin-2-yl)-N^2-(3,4,5-trimethoxyphenyl)thiazole-2,4-diamine]	1 to 10 µM
Nc1nc(Nc2ccc(N3CCN(C4CC5CCC4C5)CC3)cc2)sc1-c1ncnc2ccsc12 (centres unmarked) [Compound 12, N^2-(4-(4-(bicyclo[2.2.1]heptan-2-yl)piperazin-1-yl)phenyl)-5-(thieno[3,2-d]pyrimidin-4-yl)thiazole-2,4-diamine]	1 to 10 µM
COc1cc2ncnc(-c3sc(Nc4ccc(N5CCN(C)CC5)cc4)nc3N)c2cc1OC [Compound 11, 5-(6,7-dimethoxyquinazolin-4-yl)-N^2-(4-(4-methylpiperazin-1-yl)phenyl)thiazole-2,4-diamine]	1 to 10 µM
COc1cc2ncnc(-c3sc(Nc4ccc(OCCN5CCCC5)c(Cl)c4)nc3N)c2cc1OC [Compound 14, N^2-(3-chloro-4-(2-(pyrrolidin-1-yl)ethoxy)phenyl)-5-(6,7-dimethoxyquinazolin-4-yl)thiazole-2,4-diamine]	1 to 10 µM
Nc1nc(Nc2ccc(N3CCOCC3)cc2)sc1-c1nccc2ccccc12 [Compound 7, 5-(isoquinolin-1-yl)-N^2-(4-morpholinophenyl)thiazole-2,4-diamine]	10 to 20 µM
COc1cc2ncnc(-c3sc(Nc4ccc(OCCN5CCCC5)cc4)nc3N)c2cc1OC [Compound 1, 5-(6,7-dimethoxyquinazolin-4-yl)-N^2-(4-(2-(pyrrolidin-1-yl)ethoxy)phenyl)thiazole-2,4-diamine]	1 to 10 µM
Nc1nc(Nc2ccc(OCCN3CCCC3)cc2)sc1-c1cnc2ccccc2n1 [Compound 4, N^2-(4-(2-(pyrrolidin-1-yl)ethoxy)phenyl)-5-(quinoxalin-2-yl)thiazole-2,4-diamine]	1 to 10 µM
COc1cc(Nc2nc(N)c(-c3ncnc4ccccc34)s2)cc(OC)c1OC [Compound 6, 5-(quinazolin-4-yl)-N^2-(3,4,5-trimethoxyphenyl)thiazole-2,4-diamine]	> 20 µM
COc1cc2ncnc(-c3sc(Nc4ccc(N5CCOCC5)cc4)nc3N)c2cc1OC [Compound 10, 5-(6,7-dimethoxyquinazolin-4-yl)-N^2-(4-morpholinophenyl)thiazole-2,4-diamine]	1 to 10 µM
